Experiments:
Collagenase 3 = Collagenase 3 (Homo sapiens, UniProt P45452); assay: Inhibition of recombinant human MMP13 using Mca-Pro-cyclohexyl-Ala-Gly-Nva-His-Ala- Dap(Dnp)-NH2 as substrate by fluorometric analysis; conditions: read-out: pIC50 (converted)
[1] = biological target: 72 kDa type IV collagenase (Homo sapiens, UniProt P08253); assay: Inhibition of MMP2 using Mca-Pro-cyclohexyl-Ala-Gly-Nva-His-Ala- Dap(Dnp)-NH2 as substrate by fluorometric analysis; conditions: read-out: pIC50 (converted)
Sequence of 72 kDa type IV collagenase (P08253 whole entry): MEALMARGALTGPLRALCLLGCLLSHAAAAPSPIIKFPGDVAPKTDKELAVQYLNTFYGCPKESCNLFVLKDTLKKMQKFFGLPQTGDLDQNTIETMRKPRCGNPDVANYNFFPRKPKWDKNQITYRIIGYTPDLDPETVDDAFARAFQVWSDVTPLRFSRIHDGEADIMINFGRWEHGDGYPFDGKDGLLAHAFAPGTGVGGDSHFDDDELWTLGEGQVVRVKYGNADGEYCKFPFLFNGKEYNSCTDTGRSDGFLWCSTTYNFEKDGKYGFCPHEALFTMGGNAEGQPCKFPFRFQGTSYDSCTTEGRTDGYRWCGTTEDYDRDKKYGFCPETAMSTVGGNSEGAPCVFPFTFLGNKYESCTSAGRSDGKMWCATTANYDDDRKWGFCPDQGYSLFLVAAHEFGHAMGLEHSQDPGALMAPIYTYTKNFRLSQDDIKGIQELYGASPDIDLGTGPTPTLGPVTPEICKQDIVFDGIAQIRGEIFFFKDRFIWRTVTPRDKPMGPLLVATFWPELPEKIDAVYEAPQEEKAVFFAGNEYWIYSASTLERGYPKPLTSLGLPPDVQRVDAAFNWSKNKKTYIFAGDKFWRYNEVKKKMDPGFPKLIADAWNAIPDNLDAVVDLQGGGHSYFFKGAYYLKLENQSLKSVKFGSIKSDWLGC

[2] = Intrinsic clearance in human microsomes; format: ADME, Microsome
[3] = biological target: Matrix metalloproteinase-9 (Homo sapiens, UniProt P14780); assay: Inhibition of MMP9 using Mca-Pro-cyclohexyl-Ala-Gly-Nva-His-Ala- Dap(Dnp)-NH2 as substrate by fluorometric analysis; conditions: read-out: pIC50 (converted)
Sequence of Matrix metalloproteinase-9 (P14780 whole entry): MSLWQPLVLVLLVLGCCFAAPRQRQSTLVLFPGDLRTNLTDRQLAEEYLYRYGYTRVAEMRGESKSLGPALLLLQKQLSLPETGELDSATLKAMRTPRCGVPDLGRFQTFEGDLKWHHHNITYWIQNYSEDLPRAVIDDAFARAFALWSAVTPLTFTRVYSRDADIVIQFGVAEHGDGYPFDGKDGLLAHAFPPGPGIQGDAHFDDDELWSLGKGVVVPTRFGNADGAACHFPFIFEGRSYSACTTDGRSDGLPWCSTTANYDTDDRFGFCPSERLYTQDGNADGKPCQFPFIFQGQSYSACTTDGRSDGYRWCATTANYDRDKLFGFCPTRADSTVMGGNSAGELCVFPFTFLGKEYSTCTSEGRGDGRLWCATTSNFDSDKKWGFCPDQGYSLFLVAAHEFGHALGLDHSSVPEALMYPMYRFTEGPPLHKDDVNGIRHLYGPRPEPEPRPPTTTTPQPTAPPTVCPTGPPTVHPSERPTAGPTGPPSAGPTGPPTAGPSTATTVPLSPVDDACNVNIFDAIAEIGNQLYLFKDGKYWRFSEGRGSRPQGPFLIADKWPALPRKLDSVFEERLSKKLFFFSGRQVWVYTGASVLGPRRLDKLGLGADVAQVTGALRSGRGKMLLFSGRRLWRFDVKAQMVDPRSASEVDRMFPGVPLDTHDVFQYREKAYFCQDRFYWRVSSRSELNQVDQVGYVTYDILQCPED

[4] = biological target: Macrophage metalloelastase (Homo sapiens, UniProt P39900); assay: Inhibition of MMP12 using Mca-Pro-cyclohexyl-Ala-Gly-Nva-His-Ala- Dap(Dnp)-NH2 as substrate by fluorometric analysis; conditions: read-out: pIC50 (converted)
Sequence of Macrophage metalloelastase (P39900 whole entry): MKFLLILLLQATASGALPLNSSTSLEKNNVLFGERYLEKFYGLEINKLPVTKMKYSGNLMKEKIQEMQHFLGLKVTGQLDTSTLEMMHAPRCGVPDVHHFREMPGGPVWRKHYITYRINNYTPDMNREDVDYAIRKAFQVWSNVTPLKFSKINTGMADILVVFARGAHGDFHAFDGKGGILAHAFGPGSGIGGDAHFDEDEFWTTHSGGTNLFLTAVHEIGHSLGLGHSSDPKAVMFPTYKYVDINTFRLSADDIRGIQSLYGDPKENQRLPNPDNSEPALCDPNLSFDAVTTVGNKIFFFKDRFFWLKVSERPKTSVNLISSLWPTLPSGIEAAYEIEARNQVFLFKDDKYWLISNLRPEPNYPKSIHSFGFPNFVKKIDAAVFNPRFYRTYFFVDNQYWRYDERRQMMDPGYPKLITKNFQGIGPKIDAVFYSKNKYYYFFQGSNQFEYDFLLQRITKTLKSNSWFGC

[5] = biological target: Matrix metalloproteinase-14 (Homo sapiens, UniProt P50281); assay: Inhibition of MMP14 using Mca-Pro-cyclohexyl-Ala-Gly-Nva-His-Ala- Dap(Dnp)-NH2 as substrate by fluorometric analysis; conditions: read-out: pIC50 (converted)
[6] = biological target: MMP-2/MMP-13 (Homo sapiens) (UniProt P08253+P45452); assay: Selectivity ratio of pIC50 for MMP2 to pIC50 for recombinant human MMP13
Sequence of MMP-2/MMP-13 (Homo sapiens) (P08253 whole entry, looked up, other chains not shown): as the sequence (P08253 whole entry) above

[7] = Intrinsic clearance in Sprague-Dawley rat hepatocytes assessed per 10^6 cells; format: ADME, cell-based, Hepatocyte; conditions: Sprague-Dawley, read-out: CLH
[8] = Apparent permeability across apical to basolateral side in human Caco2 cells at 10 uM; format: ADME, cell-based; conditions: Caco-2
[9] = Apparent permeability across basolateral to apical side in human Caco2 cells at 10 uM; format: ADME, cell-based; conditions: Caco-2
[10] = Oral bioavailability in rat; format: ADME, organism-based; conditions: in vivo

Row | SMILES | IC50 (Collagenase 3) [nM] | IC50 [1] [nM] | microsomal CLint [2] [µL/min/mg] | also measured
1 | O=C(NCc1ccnc2ccccc12)c1ccc(Oc2ccc(C#C[C@]3(O)CN4CCC3CC4)cc2)cc1 | 20 | 2000 | 26.1 | 
2 | O=C(NC1CCN(C2CC2)CC1)c1ccc(Oc2ccc(C#C[C@]3(O)CN4CCC3CC4)cc2)cc1 | 79.4 | 7940 | 4.7 | IC50 [3]: > 10000 nM; IC50 [4]: > 10000 nM; IC50 [5]: > 10000 nM
3 | COc1ccc(CNC(=O)c2ccc(Oc3ccc(C#C[C@]4(O)CN5CCC4CC5)cc3)cc2)cc1OC | 10 | 1260 | 2.7 | 
4 | OCc1ccc(Oc2ccc(C#C[C@]3(O)CN4CCC3CC4)cc2)cc1 | > 10000 |  |  | 
5 | CN(Cc1ccncc1)C(=O)c1ccc(Oc2ccc(C#C[C@]3(O)CN4CCC3CC4)cc2)cc1 | 251 | > 10000 |  | 
6 | COc1ccc(CNC(=O)c2ccc(Oc3ccc(C#C[C@]4(O)CN5CCC4CC5)cc3)cc2)nc1 | 31.6 | > 10000 | 5.6 | Ratio pIC50 [6]: > 300
7 | O=C(NCc1ccccc1)c1ccc(Oc2ccc(C#C[C@]3(O)CN4CCC3CC4)cc2)cc1 | 63.1 | 7940 | < 2 | 
8 | CN(C)C(=O)c1ccc(Oc2ccc(C#C[C@]3(O)CN4CCC3CC4)cc2)cc1 | 1580 |  |  | 
9 | O=C(NC1CCS(=O)(=O)C1)c1ccc(Oc2ccc(C#C[C@]3(O)CN4CCC3CC4)cc2)cc1 (stereo partly specified) | 79.4 | 7940 | < 2 | IC50 [3]: > 10000 nM; IC50 [4]: > 10000 nM; IC50 [5]: > 10000 nM; hepatocyte CLint [7]: < 2 µL/min/1e6 cells
10 | O=C(NCc1ccc(F)cc1)c1ccc(Oc2ccc(C#C[C@]3(O)CN4CCC3CC4)cc2)cc1 | 100 | 6310 |  | 
11 | COc1cccc(CNC(=O)c2ccc(Oc3ccc(C#C[C@]4(O)CN5CCC4CC5)cc3)cc2)c1 | 79.4 | > 10000 | 10.9 | 
12 | CS(=O)(=O)Oc1cccc(CNC(=O)c2ccc(Oc3ccc(C#C[C@]4(O)CN5CCC4CC5)cc3)cc2)c1 | 63.1 | 7940 | 8.6 | 
13 | CNC(=O)N1CCC(NC(=O)c2ccc(Oc3ccc(C#C[C@]4(O)CN5CCC4CC5)cc3)cc2)CC1 | 50.1 | 3980 | < 2 | IC50 [3]: > 10000 nM; IC50 [4]: > 10000 nM; IC50 [5]: > 10000 nM
14 | C[S+]([O-])c1ccc(Oc2ccc(C#C[C@]3(O)CN4CCC3CC4)cc2)cc1 (stereo partly specified) | 398 |  |  | 
15 | NC(=O)c1ccc(Oc2ccc(C#C[C@]3(O)CN4CCC3CC4)cc2)cc1 | 631 |  |  | 
16 | CS(=O)(=O)Nc1ccc(Oc2ccc(C#C[C@]3(O)CN4CCC3CC4)cc2)cc1 | 2510 |  |  | 
17 | CCOC(=O)c1ccc(Oc2ccc(C#C[C@]3(O)CN4CCC3CC4)cc2)cc1 | 1000 |  |  | 
18 | O=C(NC1CCN(C(=O)C2CC2)CC1)c1ccc(Oc2ccc(C#C[C@]3(O)CN4CCC3CC4)cc2)cc1 | 25.1 | 6310 | 3.7 | IC50 [3]: > 10000 nM; IC50 [4]: > 10000 nM; IC50 [5]: > 10000 nM
19 | O=C(NC1CCS(=O)(=O)CC1)c1ccc(Oc2ccc(C#C[C@]3(O)CN4CCC3CC4)cc2)cc1 | 100 | > 10000 | 2.5 | IC50 [3]: > 10000 nM; IC50 [4]: > 10000 nM; IC50 [5]: > 10000 nM

Row | SMILES | IC50 (Collagenase 3) [nM] | IC50 [1] [nM] | microsomal CLint [2] [µL/min/mg] | also measured
20 | CS(=O)(=O)N1CCC(NC(=O)c2ccc(Oc3ccc(C#C[C@]4(O)CN5CCC4CC5)cc3)cc2)CC1 | 50.1 | 7940 | 2.9 | IC50 [3]: > 10000 nM; IC50 [4]: > 10000 nM; IC50 [5]: > 10000 nM; hepatocyte CLint [7]: < 2 µL/min/1e6 cells
21 | CC(=O)N1CCC(NC(=O)c2ccc(Oc3ccc(C#C[C@]4(O)CN5CCC4CC5)cc3)cc2)CC1 | 39.8 | 5010 | 2.5 | IC50 [3]: > 10000 nM; IC50 [4]: > 10000 nM; IC50 [5]: > 10000 nM; hepatocyte CLint [7]: < 2 µL/min/1e6 cells
22 | CC(C)NC(=O)c1ccc(Oc2ccc(C#C[C@]3(O)CN4CCC3CC4)cc2)cc1 | 100 | > 10000 |  | 
23 | O=C(O)c1ccc(Oc2ccc(C#C[C@]3(O)CN4CCC3CC4)cc2)cc1 | 5010 |  |  | 
24 | CS(=O)(=O)c1ccc(Oc2ccc(C#C[C@]3(O)CN4CCC3CC4)cc2)cc1 | 316 |  |  | 
25 | O=C(NCc1ccncc1)c1ccc(Oc2ccc(C#C[C@]3(O)CN4CCC3CC4)cc2)cc1 |  | 6310 | 10.2 | 
26 | CNS(=O)(=O)c1ccc(Oc2ccc(C#C[C@]3(O)CN4CCC3CC4)cc2)cc1 | 100 |  |  | 
27 | N#Cc1cccc(CNC(=O)c2ccc(Oc3ccc(C#C[C@]4(O)CN5CCC4CC5)cc3)cc2)c1 | 63.1 | > 10000 | 9.9 | 
28 | CS(=O)(=O)c1cccc(CNC(=O)c2ccc(Oc3ccc(C#C[C@]4(O)CN5CCC4CC5)cc3)cc2)c1 | 31.6 | 7940 | 12.5 | 
29 | COc1cc(CNC(=O)c2ccc(Oc3ccc(C#C[C@]4(O)CN5CCC4CC5)cc3)cc2)cc(OC)c1 | 50.1 | 7940 | 4.8 | 
30 | Cc1cc(CN(C)C(=O)c2ccc(Oc3ccc(C#C[C@]4(O)CN5CCC4CC5)cc3)cc2)on1 | 79.4 | 7940 | 2.7 | Papp A→B at 10 µM [8]: 8.2 ×10⁻⁶ cm/s; Papp B→A at 10 µM [9]: 53 ×10⁻⁶ cm/s; bioavailability [10]: 3%
31 | O=C(NC1CCCCC1)c1ccc(Oc2ccc(C#C[C@]3(O)CN4CCC3CC4)cc2)cc1 | 25.1 | > 10000 | 2.9 | 
32 | CONC(=O)c1ccc(Oc2ccc(C#C[C@]3(O)CN4CCC3CC4)cc2)cc1 | 2510 |  |  | 
33 | CC[C@@H](C)NC(=O)c1ccc(Oc2ccc(C#C[C@]3(O)CN4CCC3CC4)cc2)cc1 | 50.1 | 6310 | 8.9 | 
34 | O=C(Nc1ccccn1)c1ccc(Oc2ccc(C#C[C@]3(O)CN4CCC3CC4)cc2)cc1 | 316 | > 10000 | < 2 | 
35 | CC(=O)Nc1ccc(Oc2ccc(C#C[C@]3(O)CN4CCC3CC4)cc2)cc1 | > 10000 |  |  | 
36 | C[C@@H](NC(=O)c1ccc(Oc2ccc(C#C[C@]3(O)CN4CCC3CC4)cc2)cc1)c1ccncc1 | 12.6 | 3980 | 18.8 | Ratio pIC50 [6]: > 300
37 | COc1ccc(CNC(=O)c2ccc(Oc3ccc(C#C[C@]4(O)CN5CCC4CC5)cc3)cc2)c(OC)c1 | 39.8 | 6310 | 16.1 | 
38 | O=C(NCC1CCCCC1)c1ccc(Oc2ccc(C#C[C@]3(O)CN4CCC3CC4)cc2)cc1 | 100 | 5010 |  | 
